From patent US11963977B2, “Generating pluripotent cells de novo” (VCell Therapeutics, Inc., priority 2012, dated 2024)

Legend:
Format in all cases: cell-based, mouse
Details in all cases: 1 week-old, after 1 week of stress treatment, SLO 10 μg/mL, ATP 2.4 mM, Ca 2 mM CaCl2
[1] = test system: Bone Marrow somatic cells; experiment: Percent of cells demonstrating pluripotent phenotype after stress treatment, bone marrow cells
Source text: (§1) Stress alteration of mature somatic cells procured from various adult tissues. To examine whether ACCs could be generated not only mature lymphocytes but also other types of somatic cells, brain, skin, muscle, fat, bone marrow, lung and liver were harvested from Oct4-GFP (GOF) mice^8. Cells were isolated from the tissue samples, dissociated into single cells, and treated with different physical and or chemical stress conditions. The efficiency of the process to alter the cells differed as a function of both the source of cells and the stress condition(s) to which the cells were exposed (FIG. 7A). The ability of stress to alter mature cells to express Oct4, differed depending on the derivation of cells, but stress was able to alter cells to express Oct4 to some degree in mature cells derived from all three germ layers (FIG. 7A). ACC colonies derived from any mature tissue expressed pluripotent markers, E-cadherin, Nanog, PCAM-1 and AP (data not shown), and ES specific marker genes (FIG. 7B). Significant physical and chemical stresses altered mature somatic cells to revert to a stem cell state, despite of the source of tissues and derivation of the germ layers.
(§2) Exposure to external stimuli—stress treatment. […]
(§3) Fluorescence-Activated Cell Sorting and Flow Cytometry. […] Cells were sorted on a BD FACSAria SORP and analyzed on a BD LSRII with BD FACSDiva Software (BD Biosciences).

Brain somatic cells = experiment: Percent of cells demonstrating pluripotent phenotype after stress treatment, brain cells
Lung somatic cells = experiment: Percent of cells demonstrating pluripotent phenotype after stress treatment, lung cells
Source text: as §1, §2, §3

Muscle somatic cells = experiment: Percent of cells demonstrating pluripotent phenotype after stress treatment, muscle cells
Source text: as §1, §2, §3

Fat somatic cells = experiment: Percent of cells demonstrating pluripotent phenotype after stress treatment, fat cells
Source text: as §1, §2, §3

Fibroblast = experiment: Percent of cells demonstrating pluripotent phenotype after stress treatment, fibroblasts
Source text: as §1, §2, §3

streptolysin O [SLO]
Percent of cells demonstrating pluripotent phenotype [1]: 13.2%
Percent of cells demonstrating pluripotent phenotype (Brain somatic cells): 10.3%
Percent of cells demonstrating pluripotent phenotype (Lung somatic cells): 18.4%
Percent of cells demonstrating pluripotent phenotype (Muscle somatic cells): 20.5%
Percent of cells demonstrating pluripotent phenotype (Fat somatic cells): 32.8%
Percent of cells demonstrating pluripotent phenotype (Fibroblast): 15.2%
